# Measured values from patent US9023847B2, “Azaheterocyclic compounds” (Merck Patent GmbH, priority 2009, dated 2015).
# Target: T1, P70S6K (T412E mutant, Millipore) (Homo sapiens, UniProt P23443, T412E)
# T1 construct: purchased Millipore
# Assay: p70S6K enzyme assay
# Assay type: biochemical
# Details: class symbol; 3 nM P70S6K, 24 μM ATP; read-out: IC50 (p70S6K)
# In short: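 T412E-mutant P70S6K (3 nM) with 24 μM ATP and 1 μM FITC-AHA-AKRRRLSSLRA-OH S6-derived peptide in 100 mM Hepes pH 7.5, 5 mM MgCl2, 1 mM DTT, 0.015% Brij; 90 min at 25° C, EDTA stop. Phosphorylated product and substrate peptide separated and quantified by microfluidic capillary electrophoresis (Caliper LabChip 3000).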
# T1 sequence (P23443 whole entry T412E): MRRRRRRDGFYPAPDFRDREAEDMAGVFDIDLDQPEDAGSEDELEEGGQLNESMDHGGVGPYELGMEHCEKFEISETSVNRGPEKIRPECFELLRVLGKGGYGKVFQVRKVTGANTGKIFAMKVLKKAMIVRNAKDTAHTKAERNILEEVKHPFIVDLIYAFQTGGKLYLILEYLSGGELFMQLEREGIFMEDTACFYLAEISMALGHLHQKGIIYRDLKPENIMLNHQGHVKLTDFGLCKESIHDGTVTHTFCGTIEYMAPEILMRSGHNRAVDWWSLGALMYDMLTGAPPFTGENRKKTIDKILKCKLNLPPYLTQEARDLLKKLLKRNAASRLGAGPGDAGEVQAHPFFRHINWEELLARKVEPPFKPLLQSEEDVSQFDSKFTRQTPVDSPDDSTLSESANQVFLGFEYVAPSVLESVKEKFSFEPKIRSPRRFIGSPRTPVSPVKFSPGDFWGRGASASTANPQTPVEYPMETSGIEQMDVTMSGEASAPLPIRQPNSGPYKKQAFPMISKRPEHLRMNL
row,SMILES,IC50 [nM]
1,"O=C(Nc1cccc(CNC(=O)c2sccc2Nc2ccnc3[nH]ccc23)c1)c1ccc(F)cc1 [Example 100, 3-(1H-Pyrrolo[2,3-b]pyridin-4-ylamino)-thiophene-2-carboxylic acid 3-(4-fluoro-benzoylamino)-benzylamide]",< 100
2,"O=C(NCc1cn(Cc2ccccc2)nn1)c1sccc1Nc1ccnc2[nH]ccc12 [Example 101, 3-(1H-Pyrrolo[2,3-b]pyridin-4-ylamino)-thiophene-2-carboxylic acid (1-benzyl-1H-[1,2,3]triazol-4-ylmethyl)-amide]",100 to 1000
3,"CC(C)(C)OC(=O)N1CCC(NC(=O)c2ccsc2Nc2ccnc3[nH]ccc23)C1 (centres unmarked) [Example 102, 3-{[2-(1H-Pyrrolo[2,3-b]pyridin-4-ylamino)-thiophene-3-carbonyl]-amino}-pyrrolidine-1-carboxylic acid tert-butyl ester]",100 to 1000
4,"O=C(NC1CCNC1)c1ccsc1Nc1ccnc2[nH]ccc12 (centres unmarked) [Example 103, 2-(1H-Pyrrolo[2,3-b]pyridin-4-ylamino)-thiophene-3-carboxylic acid pyrrolidin-3-ylamide]",< 100
5,"CC(C)(C)OC(=O)N1CCCC(NC(=O)c2ccsc2Nc2ccnc3[nH]ccc23)C1 (centres unmarked) [Example 104, 3-{[2-(1H-Pyrrolo[2,3-b]pyridin-4-ylamino)-thiophene-3-carbonyl]-amino}-piperidine-1-carboxylic acid tert-butyl ester]",100 to 1000
6,"O=C(NC1CCCNC1)c1ccsc1Nc1ccnc2[nH]ccc12 (centres unmarked) [Example 105, 2-(1H-Pyrrolo[2,3-b]pyridin-4-ylamino)-thiophene-3-carboxylic acid piperidin-3-ylamide]",< 100
7,"COc1ccccc1C(CN)NC(=O)c1ccsc1Nc1ccnc2[nH]ccc12 (centres unmarked) [Example 109, 2-(1H-Pyrrolo[2,3-b]pyridin-4-ylamino)-thiophene-3-carboxylic acid [2-amino-1-(2-methoxy-phenyl)-ethyl]-amide]",< 100
8,"Nc1cccc(CNC(=O)c2ccsc2Nc2ccnc3[nH]ccc23)c1 [Example 111, 2-(1H-Pyrrolo[2,3-b]pyridin-4-ylamino)-thiophene-3-carboxylic acid 3-amino-benzylamide]",< 100
9,"O=C(NCc1ccccc1)c1ccsc1Nc1ccnc2[nH]ccc12 [Example 112, 2-(1H-Pyrrolo[2,3-b]pyridin-4-ylamino)-thiophene-3-carboxylic acid benzylamide]",< 100
10,"[N-]=[N+]=NC[C@@H](NC(=O)c1ccsc1Nc1ccnc2[nH]ccc12)c1ccccc1 [Example 114, 2-(1H-Pyrrolo[2,3-b]pyridin-4-ylamino)-thiophene-3-carboxylic acid ((S)-2-azido-1-phenyl-ethyl)-amide]",< 100
11,"N#CC(NC(=O)c1ccsc1Nc1ccnc2[nH]ccc12)c1ccccc1 (centres unmarked) [Example 116, 2-(1H-Pyrrolo[2,3-b]pyridin-4-ylamino)-thiophene-3-carboxylic acid (cyano-phenyl-methyl)-amide]",< 100
12,"CC(C)C[C@@H](CO)NC(=O)c1ccsc1Nc1ccnc2[nH]ccc12 [Example 117, 2-(1H-Pyrrolo[2,3-b]pyridin-4-ylamino)-thiophene-3-carboxylic acid ((S)-1-hydroxymethyl-3-methyl-butyl)-amide]",< 100
13,"O=C(N[C@H](CO)Cc1ccccc1)c1ccsc1Nc1ccnc2[nH]ccc12 [Example 118, 2-(1H-Pyrrolo[2,3-b]pyridin-4-ylamino)-thiophene-3-carboxylic acid ((S)-1-hydroxymethyl-2-phenyl-ethyl)-amide]",< 100
14,"O=C(N[C@@H](CO)Cc1ccccc1)c1ccsc1Nc1ccnc2[nH]ccc12 [Example 119, 2-(1H-Pyrrolo[2,3-b]pyridin-4-ylamino)-thiophene-3-carboxylic acid ((R)-1-hydroxymethyl-2-phenyl-ethyl)-amide]",100 to 1000
15,"O=C(Nc1cccc(CNC(=O)c2sccc2Nc2ccnc3[nH]ccc23)c1)c1ccnc(Cl)c1 [Example 129, 2-Chloro-N-[3-({[3-(1H-pyrrolo[2,3-b]pyridin-4-ylamino)-thiophene-2-carbonyl]-amino}-methyl)-phenyl]-isonicotinamide]",< 100
16,"CC(NCCNC(=O)c1sccc1Nc1ccnc2[nH]ccc12)c1ccccc1 (centres unmarked) [Example 131, 3-(1H-Pyrrolo[2,3-b]pyridin-4-ylamino)-thiophene-2-carboxylic acid [2-(1-phenyl-ethylamino)-ethyl]-amide]",< 100
17,"O=C(N[C@H](CN1C(=O)c2ccccc2C1=O)c1ccccc1)c1ccsc1Nc1ccnc2[nH]ccc12 [Example 134, (S)-[3-(1H-Pyrrolo[2,3-b]pyridin-4-ylamino)-thiophene-2-carboxylic acid[2-(1,3-dioxo-1,3-dihydro-isoindol-2-yl)-1-phenyl-ethyl]-amide]]",< 100
18,"O=C(N[C@H](CN1C(=O)c2ccccc2C1=O)c1ccccc1)c1sccc1Nc1ccnc2[nH]ccc12 [Example 135, (S)-2-(1H-Pyrrolo[2,3-b]pyridin-4-ylamino)-thiophene-3-carboxylic acid[2-(1,3-dioxo-1,3-dihydro-isoindol-2-yl)-1-phenyl-ethyl]-amide]",< 100
19,"COc1ccc(CNCCNC(=O)c2sccc2Nc2ccnc3[nH]ccc23)cc1Cl [Example 137, 3-(1H-Pyrrolo[2,3-b]pyridin-4-ylamino)-thiophene-2-carboxylic acid [2-(3-chloro-4-methoxy-benzylamino)-ethyl]-amide]",< 100
20,"COC(=O)CNC(=O)c1sccc1Nc1ccnc2[nH]ccc12 [Example 138, {[3-(1H-Pyrrolo[2,3-b]pyridin-4-ylamino)-thiophene-2-carbonyl]-amino}-acetic acid methyl ester]",100 to 1000

# Further lines, results first:
row,IC50 [nM],SMILES
1,< 100,"O=C(NCC(O)c1ccccc1)c1sccc1Nc1ccnc2[nH]ccc12 (centres unmarked) [Example 99, 3-(1H-Pyrrolo[2,3-b]pyridin-4-ylamino)-thiophene-2-carboxylic acid (2-hydroxy-2-phenyl-ethyl)-amide]"
2,< 100,"NCC(NC(=O)c1sccc1Nc1ccnc2[nH]ccc12)c1cccc(F)c1 (centres unmarked) [Example 106, 3-(1H-Pyrrolo[2,3-b]pyridin-4-ylamino)-thiophene-2-carboxylic acid [2-amino-1-(3-fluoro-phenyl)-ethyl]-amide]"
3,< 100,"COc1ccccc1C(CN)NC(=O)c1sccc1Nc1ccnc2[nH]ccc12 (centres unmarked) [Example 107, 3-(1H-Pyrrolo[2,3-b]pyridin-4-ylamino)-thiophene-2-carboxylic acid [2-amino-1-(2-methoxy-phenyl)-ethyl]-amide]"
4,< 100,"NCC(NC(=O)c1ccsc1Nc1ccnc2[nH]ccc12)c1cccc(F)c1 (centres unmarked) [Example 108, 2-(1H-Pyrrolo[2,3-b]pyridin-4-ylamino)-thiophene-3-carboxylic acid [2-amino-1-(3-fluoro-phenyl)-ethyl]-amide]"
5,< 100,"COc1ccc(C(CN)NC(=O)c2ccsc2Nc2ccnc3[nH]ccc23)cc1OC (centres unmarked) [Example 110, 2-(1H-Pyrrolo[2,3-b]pyridin-4-ylamino)-thiophene-3-carboxylic acid [2-amino-1-(3,4-dimethoxy-phenyl)-ethyl]-amide]"
6,< 100,"COc1ccc(C(CN)NC(=O)c2sccc2Nc2ccnc3[nH]ccc23)cc1OC (centres unmarked) [Example 113, 3-(1H-Pyrrolo[2,3-b]pyridin-4-ylamino)-thiophene-2-carboxylic acid [2-amino-1-(3,4-dimethoxy-phenyl)-ethyl]-amide]"
7,< 100,"N#CC[C@@H](NC(=O)c1sccc1Nc1ccnc2[nH]ccc12)c1ccccc1 [Example 115, 3-(1H-Pyrrolo[2,3-b]pyridin-4-ylamino)-thiophene-2-carboxylic acid ((R)-2-cyano-1-phenyl-ethyl)-amide]"
8,< 100,"NC(=O)C[C@@H](NC(=O)c1sccc1Nc1ccnc2[nH]ccc12)c1ccccc1 [Example 120, 3-(1H-Pyrrolo[2,3-b]pyridin-4-ylamino)-thiophene-2-carboxylic acid ((R)-2-carbamoyl-1-phenyl-ethyl)-amide]"
9,< 100,"Cc1ccc(C(CN)NC(=O)c2ccsc2Nc2ccnc3[nH]ccc23)cc1 (centres unmarked) [Example 126, 2-(1H-Pyrrolo[2,3-b]pyridin-4-ylamino)-thiophene-3-carboxylic acid (2-amino-1-p-tolyl-ethyl)-amide]"
10,< 100,"COc1cccc(C(CN)NC(=O)c2ccsc2Nc2ccnc3[nH]ccc23)c1 (centres unmarked) [Example 127, 2-(1H-Pyrrolo[2,3-b]pyridin-4-ylamino)-thiophene-3-carboxylic acid [2-amino-1-(3-methoxy-phenyl)-ethyl]-amide]"
11,< 100,"NCC(NC(=O)c1ccsc1Nc1ccnc2[nH]ccc12)c1ccc(Cl)c(Cl)c1 (centres unmarked) [Example 128, 2-(1H-Pyrrolo[2,3-b]pyridin-4-ylamino)-thiophene-3-carboxylic acid [2-amino-1-(3,4-dichloro-phenyl)-ethyl]-amide]"
12,< 100,"NCC(NC(=O)c1ccsc1Nc1ccnc2[nH]ccc12)c1cccc(Cl)c1 (centres unmarked) [Example 130, 2-(1H-Pyrrolo[2,3-b]pyridin-4-ylamino)-thiophene-3-carboxylic acid [2-amino-1-(3-chloro-phenyl)-ethyl]-amide]"
13,< 100,"NCC(NC(=O)c1sccc1Nc1ccnc2[nH]ccc12)c1ccc(C(F)(F)F)cc1 (centres unmarked) [Example 132, 3-(1H-Pyrrolo[2,3-b]pyridin-4-ylamino)-thiophene-2-carboxylic acid [2-amino-1-(4-trifluoromethyl-phenyl)-ethyl]-amide]"
14,< 100,"NCC(NC(=O)c1ccsc1Nc1ccnc2[nH]ccc12)c1ccc(C(F)(F)F)cc1 (centres unmarked) [Example 133, 2-(1H-Pyrrolo[2,3-b]pyridin-4-ylamino)-thiophene-3-carboxylic acid [2-amino-1-(4-trifluoromethyl-phenyl)-ethyl]-amide]"
15,< 100,"Cc1ccc(CNCCNC(=O)c2sccc2Nc2ccnc3[nH]ccc23)cc1 [Example 136, 3-(1H-Pyrrolo[2,3-b]pyridin-4-ylamino)-thiophene-2-carboxylic acid [2-(4-methyl-benzylamino)-ethyl]-amide]"
